Key:
Assay type in all cases: physicochemical
[1] = Solubility of dye in PGMEA; conditions: solvent PGMEA
[2] = Thermal stability of films (chromaticity difference ΔEab before/after hard baking); conditions: for ΔEab after baking at 230° C. for another 1 h: film further baked at 230° C. under air for another 1 h; for ΔEab after baking at 230° C. for 1 h: film with alkaline soluble acrylic resin, hard bake 230° C. under air 1 h
Experimental: For Inventive Example 1, 0.15 g of Dye 1, 1.35 g of PGMEA and 1 g of alkaline soluble acrylic resin solution (MIPHOTO RPR4022, supplied from Miwan Commercial Co., Ltd., 25 to 35% of solid content in methyl 3-methoxypropionate) were mixed and stirred for 2 hours at room temperature using a shaker. For Inventive Example 2, 0.15 g of a mixture of Dye land Dye 2 was used instead of Dye 1. The solutions were filtered with a 0.45 μm PTFE filter to get rid of big particles. Then the filtered solutions were spin coated onto a clean glass substrate with 200 and 270 rpm spin speed for 18 seconds respectively. The obtained films were first dried at 90° C. under air atmosphere for 30 minutes, and then hard baked at 230° C. under air atmosphere for 1 hour. The CIE values (xyY values and lab values) and the UV-Vis were measured before and after the hard bake.
The obtained dry films were further baked at 230° C. under air for 1 hour to evaluate thermal stability of the films. Optical performance after baking (AEab value) were 2.3 (Inventive Example 1) and 1.8 (Inventive Example 2), and the one of after further baking were 3.0 (Inventive Example 1) and 2.7 (Inventive Example 2). A smaller AEab value indicates better heat resistance.
(§1) <Performance Evaluation> • (1) Thermal stability of dyes (Mass loss measured by TGA): • The thermal stability of dye itself was determined by the mass loss of dye measured by TGA under air atmosphere at 230° C. for 1 hour. This evaluation reflects chemical stability of the dye itself. • (2) Film thickness: • Film thickness is measured by scanning the difference in height across the boundary of film and glass substrate with atomic force microscope. • (3) Chromaticity coordinates: • The chromaticity coordinate of film on a glass sheet is directly recorded with UltraScan Pro (Hunterlab) colorimeter. The light source is D65/10. • (4) Thermal stability of films (Chromaticity): • The wet film after spin coating is dried in oven at 90° C. for 30 minutes and then soft baked at 150° C. for 15 minutes. The chromaticity coordinates (L, a, b) are recorded with UltraScan Pro (Hunterlab) colorimeter. D65/10 light source is used and results are based on CIE Lab coordinates. After that the film is hard baked at target temperature (230° C.) for 1 hour and the new chromaticity coordinates (L′, a′, b′) are recorded with the method above. The thermal stability of a film is indicated by the difference of chromaticity coordinate before and after hard baking represented by the following formula;
ΔE=√{square root over ((L−L′)^2+(a−a′)^2+(b−b′)^2)}

[3] = Thermal stability of dyes (mass loss measured by TGA); conditions: 230° C. for 1 hour, air atmosphere
Experimental: as §1

Solubility in PGMEA [1] [wt %] | ΔEab after baking at 230° C. for another 1 h [2] | ΔEab after baking at 230° C. for 1 h [2] | Mass loss by TGA after baking [3] [wt. %] | Structure (SMILES)
2.8 | 6.0 | 6.8 | – | Cc1cc(C)c(Nc2ccc(Nc3c(C)cc(O)cc3C)c3c2C(=O)c2ccccc2C3=O)c(C)c1 [(1-((4-hydroxy-2,6-dimethylphenyl)amino)-4-(mesitylamino)-anthraquinone]
11.2 | 3.0 | 2.3 | 2 | Cc1cc(C)c(Nc2ccc(Nc3c(C)cc(OCC(O)COc4ccc(C(C)(C)c5ccc(OCC(O)COc6cc(C)c(Nc7ccc(Nc8c(C)cc(C)cc8C)c8c7C(=O)c7ccccc7C8=O)c(C)c6)cc5)cc4)cc3C)c3c2C(=O)c2ccccc2C3=O)c(C)c1 (stereo not drawn) [Dye 1]
1.92 | – | 33 (color | – | CC(C)Nc1ccc(NC(C)C)c2c1C(=O)c1ccccc1C2=O [Solvent Blue 36]
0.6 | 6.1 | 7.9 | – | Cc1cc(C)c(Nc2ccc(Nc3c(C)cc(C)cc3C)c3c2C(=O)c2ccccc2C3=O)c(C)c1 [Solvent Blue 104, 1,4-bis(mesitylamino)anthraquinone]

Source: patent publication US20170038686A1, “ANTHRAQUINONE COMPOUND USED FOR COLOR FILTER OF LCD” (Rohm and Haas Electronic Materials LLC, priority 2014, published 2017)
